Results: US20050048132A1, “Use of hydrochloric acid in the preparation of a medicament for the treatment of tumour” (priority 2001, published 2005)
Like-named read-outs stand apart in the source and are kept apart here.

Assays:
pig livers in vitro = conditions: 0.5 ml each; after 24 hours
Excerpt: Twelve pig livers purchased from the market were divided into 4 groups, 3 in each group. A puncture needle was punctured to the center of the liver tissue and then connected with an automatic microinjecting pump.

liver of hogs in vivo = conditions: 1.0 ml each into hog liver; 1 week after injection
Excerpt: Experiment in vivo: Nine hogs (females and males) with average body weight of 70 kg were fed in an enclosed area. The hogs were divided into 3 groups, 3 hogs in each group. The hair on the location of liver was shaved and the skin was sterilized. […] The animals were dissected 1 week after the injection.

S-180 sarcomas = conditions: forty-eight hours after injection; for Diameters of coagulating necrotic area / Gross shapes: 0.05 ml each into tumor 1 cm in size
Excerpt: S-180 sarcomas were implanted into the hypodermal tissues of mice of Kun Ming species. When the tumor grew into 1 cm in size, a puncture needle was punctured into the center of the tumor and then connected with an automatic micro-injecting pump.

cancer cells = assay: Cultivation of cancer cells in vitro together with gastric juice; format: cell-based
[1] = tested on: metastatic tumor of the left lobe of the brain from pulmonary adenocarcinoma; conditions: 1.0 ml of 18 wt % HCl, two times; tumor 1.9 cm×1.9 cm before; 3 months after treatment
kidney cancer = conditions: 1.5 ml of 18 wt % HCl, 3 months after treatment
Experimental: Treatment of kidney cancer: guided by CT, the puncture needle hit the center of the tumor, 1.5 ml of 18 wt % HCl was injected into the tumor slowly.

[2] = tested on: cancerous pain due to advanced cancers; conditions: 3.6 wt % HCl to block and damage the nerves
[3] = tested on: primary bronchopulmonary carcinoma
Experimental: Two cases of primary bronchopulmonary carcinoma which were pathologically confirmed were chosen. One was a case of adenocarcinoma, the other was a case of adenous prickle cell carcinoma. The sizes of the two tumors were 2.0×2.0 cm and 2.5×2.0 cm respectively. After CT location, guided by CT, percutaneous puncture was carried out on each case; the needle reached the center of the tumor and connected with an automatic micro-injecting pump, 1.5, 2.0 ml of 18 wt % HCl were injected into the tumors at a speed of 0.2 ml/min.

[4] = tested on: recurrent carcinoma of breast; conditions: 1.0 ml of 18 wt % HCl, treated three times; tumor 2.0 cm×1.5 cm
lungs of hogs = tested on: lungs of hogs
Excerpt: The lung of the animal was dissected 1 week after the injection.

pig liver in vitro = tested on: pig liver in vitro
Experimental: Thirty pig livers purchased from the market were divided into 10 groups, 3 in each group. […] One milliliter (1 ml) of hydrochloric acid solutions, (the concentrations being 1.8 wt %, 3.6 wt %, 7.2 wt %, 10.8 wt %, 14.4 wt %, 18 wt %, 25.2 wt %), and 1 ml , 0.5 ml, 0.1 ml respectively, of analytical pure hydrochloric acid were injected slowly to the […] of different groups, at a speed of 0.3 ml/min. The gross specimens were observed and the average value of the diameters of coagulated areas was determined.

skin of guinea pig = conditions: 0.2 ml of 3.6 wt % HCl hypodermal
Experimental: Six guinea pigs, female and males, 500 g each in body weight, were fed in the routine way. The guinea pig was anesthetized by ether. 0.2 ml of 3.6 wt % HCl was injected into the hypodermal tissue of the guinea pig.

[5] = tested on: metastatic tumor of the adrenal gland from pulmonary carcinoma; conditions: 1.0 ml of 18 wt % HCl, treated three times
[6] = tested on: abdominal hypodermal tissue of mice
Experimental: Thirty mice were used in the experiment. 0.05 ml of 3.8 wt % HCl was injected into the abdominal hypodermal tissue of each of them. […] Injection of 0.05 ml of normal saline was given to each of the remaining 6 mice which served as the control group. Normal saline was injected into the corresponding site where HCl had been injected to the other experimental mice.

pig liver in vivo = conditions: for diameters of coagulated areas / pathological changes: 1 ml of 3.6% hydrochloric acid
Excerpt: Ten hogs (females and males), with body weights of 70 kg on average, were fed in an enclosed area. The hair on the location of the liver of each hog was shaved and the skin sterilized guided by B-type ultrasonography. The puncture needle was punctured through the skin to the liver and then the needle was connected with an automatic micro-injecting pump. […] The animal was dissected at 1 week, 4 weeks, 12 weeks and 24 weeks after injection, and the shapes of the coagulating necrotic areas were observed and the diameters of the areas were measured. […] Then the liver tissue including normal tissue and coagulating necrotic tissue was fixed with formalin. Paraffin sections were prepared and the histopathological changes were observed under a microscope. […] Under a microscope, the structure of coagulating necrotic liver tissue was divided into two layers: the necrotic area in the center, and the surrounding reacting area.

[7] = 1.5 ml-2.0 ml of 18 wt % HCl with i.v. 5 wt % sodium bicarbonate, 4 patients
[8] = 1.5 ml-2.0 ml of 18 wt % HCl, one week after injection

Experimental for W256 sarcoma: Rats, female and males, 500 g each in body weight, were fed routinely. Hypodermic implantation of W256 sarcoma was carried out. Sarcoma, 5 cm in diameter, was chosen. One (1.0) ml of 18 wt % HCl was slowly injected into the tumor. Twenty-four hours after injection, the rats were dissected, and the tumors were observed.

How did the “diameter of coagulating necrotic area” value (pig livers in vitro) turn out when `CC(=O)O` [50% acetic acid, acetic acid] was run?
Its value is 2.0 cm.

What about the gross shape (pig livers in vitro) of the same molecule?
Its gross shape is “lump-like, white, the border”.

What about the “diameter of coagulating necrotic area” value (liver of hogs in vivo) of the same molecule?
The value was “about 1.8 cm”.

What about the “gross examination of coagulating necrotic area” value (shortened to “gross examination”) (liver of hogs in vivo) of the same molecule?
Its value is “did not have a definite border”.

What about the “Diameters of coagulating necrotic area” value (S-180 sarcomas) of the same molecule?
The value was 0.62 cm.

What about the Gross shapes (S-180 sarcomas) of the same molecule?
Its Gross shapes is “brown, the border was unclear,”.

For `Cl` [hydrochloric acid], which “diameter of coagulating necrotic area” value (pig livers in vitro) is on record?
Its value is 2.2 cm.

What about the gross shape (pig livers in vitro) of the same molecule?
Its gross shape is “spherical, grayish white in color, the”.

What about the “effect on cancer cells in culture” value (cancer cells) of the same molecule?
The value was “the destruction was due to gastric acid”.

And the “size of metastatic tumor by intensified CT” value [1]?
The value was 0.8 cm.

What about the “coagulating necrotic ranges of the liver” value (hogs; 18 wt % HCl, 0.5, 1, 3 ml at 0.1, 0.5, 1 ml/min into hog liver, one week after injection) of the same molecule?
Its value is 1.2-5.2 cm.

And the death or intoxication (hogs; 18 wt % HCl, 0.5 ml-3 ml into hog liver)?
Its death or intoxication is “No death or intoxication of hog occurred”.

What about the “diameter of coagulating necrotic area” value (liver of hogs in vivo) of the same molecule?
The value was 2.1 cm.

What about the “gross examination” value (liver of hogs in vivo) of the same molecule?
Its value is “spheroid”.

What about the “appearance of tumor on re-examination” value (kidney cancer) of the same molecule?
Its value is “high level echo locus without blood flow”.

And the “diameter of tumor on re-examination” value (kidney cancer; tumor 3.0 cm×2.5 cm before)?
The value was 0.5 cm.

And the “relief of cancerous pain” value [2]?
The value was “pain could be relieved”.

And the “diameter of brown necrotic tumor tissue” value (W256 sarcoma; 1.0 ml of 18 wt % HCl into sarcoma 5 cm in diameter, 24 hours after injection)?
The value was 3.5 cm.

And the “death or intoxication during the treatment” value (W256 sarcoma; 1.0 ml of 18 wt % HCl intratumoral)?
The value was “no death or intoxication occurred among the rats”.

And the “histopathologic changes by microscopy” value (W256 sarcoma; 1.0 ml of 18 wt % HCl, 24 hours after injection)?
The value was “complete necrosis occurred in the necrotic area”.

What about the “cytological examination of needle puncture biopsy” value ([3]; 1.5, 2.0 ml of 18 wt % HCl) of the same molecule?
The value was “found necrotic tissue”.

What about the “reactions during the treatment” value ([3]; 1.5, 2.0 ml of 18 wt % HCl with i.v. 5% sodium bicarbonate, two patients) of the same molecule?
Its value is “coughed slightly during the treatment; no other painful or toxic manifestations occurred”.

What about the “pH value of blood, blood routine tests, liver and kidney function tests” value ([3]; 1.5, 2.0 ml of 18 wt % HCl, two patients) of the same molecule?
Its value is “all normal”.

And the tumor response [4]?
Its tumor response is “basically turned into necrotic tissue”.

What about the “reaction of animal at injection” value (lungs of hogs; 1.0 ml of 3.6 wt % HCl into the lung at 0.3 ml/min) of the same molecule?
The value was “coughed slightly”.

What about the “diameter of coagulated (consolidated) lung tissue” value (lungs of hogs; 1.0 ml of 3.6 wt % HCl, 1 week after injection) of the same molecule?
The value was 1.8 cm.

And the “coagulating necrotic area on dissection of the lung” value (lungs of hogs; 1.0 ml of 3.6 wt % HCl, four weeks after injection)?
Its value is “the coagulating necrotic area became smaller”.

And the “fate of necrotic substances” value (lungs of hogs; 1.0 ml of 3.6 wt % HCl, three months after injection)?
Its value is “the necrotic substances were absorbed”.

And the “Diameter of coagulated areas” value (pig liver in vitro; 0.1 ml of analytic pure hydrochloric acid (36%), 24 hours after injection)?
Its value is 1.5 cm.

What about the “Diameter of coagulated areas” value (pig liver in vitro; 0.1 ml of analytic pure hydrochloric acid (36%), immediately after injection) of the same molecule?
Its value is 0.2 cm.

What about the “Diameter of coagulated areas” value (pig liver in vitro; 0.5 ml of analytic pure hydrochloric acid (36%), 24 hours after injection) of the same molecule?
Its value is 3.9 cm.

And the “Diameter of coagulated areas” value (pig liver in vitro; 0.5 ml of analytic pure hydrochloric acid (36%), immediately after injection)?
The value was 1.5 cm.

What about the “Diameter of coagulated area” value (pig liver in vitro; 1 ml of 1.8 % hydrochloric acid, 24 hours after injection) of the same molecule?
Its value is 0.75 cm.

And the “Diameter of coagulated area” value (pig liver in vitro; 1 ml of 1.8 % hydrochloric acid, immediately after injection)?
Its value is 0.7 cm.

And the “Diameter of coagulated area” value (pig liver in vitro; 1 ml of 3.6 % hydrochloric acid, 24 hours after injection)?
Its value is 1.4 cm.

What about the “Diameter of coagulated area” value (pig liver in vitro; 1 ml of 3.6 % hydrochloric acid, immediately after injection) of the same molecule?
The value was 1.0 cm.

And the “Diameter of coagulated area” value (pig liver in vitro; 1 ml of 7.2 % hydrochloric acid, 24 hours after injection)?
Its value is 1.9 cm.

And the “Diameter of coagulated area” value (pig liver in vitro; 1 ml of 7.2 % hydrochloric acid, immediately after injection)?
Its value is 1.3 cm.

What about the “Diameter of coagulated area” value (pig liver in vitro; 1 ml of 10.8 % hydrochloric acid, 24 hours after injection) of the same molecule?
The value was 2.2 cm.

What about the “Diameter of coagulated area” value (pig liver in vitro; 1 ml of 10.8 % hydrochloric acid, immediately after injection) of the same molecule?
Its value is 1.5 cm.

And the “Diameter of coagulated area” value (pig liver in vitro; 1 ml of 14.4 % hydrochloric acid, 24 hours after injection)?
Its value is 3.1 cm.

What about the “Diameter of coagulated area” value (pig liver in vitro; 1 ml of 14.4 % hydrochloric acid, immediately after injection) of the same molecule?
The value was 1.8 cm.

And the “Diameter of coagulated area” value (pig liver in vitro; 1 ml of 18 % hydrochloric acid, 24 hours after injection)?
The value was 4.8 cm.

And the “Diameter of coagulated area” value (pig liver in vitro; 1 ml of 18 % hydrochloric acid, immediately after injection)?
The value was 2.2 cm.

And the “Diameter of coagulated area” value (pig liver in vitro; 1 ml of 25.2 % hydrochloric acid, 24 hours after injection)?
The value was 5.2 cm.

What about the “Diameter of coagulated area” value (pig liver in vitro; 1 ml of 25.2 % hydrochloric acid, immediately after injection) of the same molecule?
The value was 2.4 cm.

And the “Diameter of coagulated areas” value (pig liver in vitro; 1.0 ml of analytic pure hydrochloric acid (36%), 24 hours after injection)?
The value was 5.5 cm.

And the “Diameter of coagulated areas” value (pig liver in vitro; 1.0 ml of analytic pure hydrochloric acid (36%), immediately after injection)?
Its value is 2.8 cm.

What about the “Diameters of coagulating necrotic area” value (S-180 sarcomas) of the same molecule?
Its value is 0.76 cm.

What about the Gross shapes (S-180 sarcomas) of the same molecule?
The Gross shapes was “spherical, caseous, grayish white in color,”.

And the “necrosis of the tumor” value (S-180 sarcomas; 0.05 ml)?
The value was “complete necrosis of the tumor”.

And the “skin change after injection” value (skin of guinea pig)?
Its value is “the skin became rough and a little exudation occurred”.

And the “skin change three weeks later” value (skin of guinea pig; iodine tincture smeared, three weeks later)?
The value was “the surface became dry and scar was formed”.

What about the “diameter of surface of ulcer” value (skin of guinea pig; one week after injection) of the same molecule?
Its value is 1.0 cm.

What about the tumor response [5] of the same molecule?
Its tumor response is “necrosis of the tumor occurred”.

And the “pH value of blood, blood routine tests, liver and kidney function tests” value (primary liver cancer; [7])?
The value was “all normal”.

What about the “painful or toxic manifestation” value (primary liver cancer; [7]) of the same molecule?
The value was “None of the 4 patients had painful or toxic manifestation”.

And the “color ultrasonography of the tumor” value (primary liver cancer; [8])?
Its value is “high level echo without blood flow area”.

And the “liver cancer sensitive index α-fetoglobulin value” (primary liver cancer; [8])?
The value was “markedly lowered”.

And the “damage in the abdominal organs by dissection” value ([6]; 0.05 ml of 3.8 wt % HCl abdominal hypodermal)?
Its value is “No damage was found in the abdominal organs”.

What about the “diameters of damages (ulcer-like damages of the skin)” value ([6]; 0.05 ml of 3.8 wt % HCl then 0.05 ml normal saline (control group)) of the same molecule?
The value was 1.2 cm.

And the “diameters of scar areas” value ([6]; 0.05 ml of 3.8 wt % HCl then normal saline (control group), one week later)?
Its value is 0.9 cm.

What about the “diameters of coagulated areas” value (pig liver in vivo; 1 week after injection) of the same molecule?
The value was 1.8 cm.

What about the pathological changes (pig liver in vivo; 1 week after injection) of the same molecule?
Its pathological changes is “necrotic area occupies most part of the area,”.

And the “diameters of coagulated areas” value (pig liver in vivo; 4 weeks after injection)?
The value was 1.3 cm.

What about the pathological changes (pig liver in vivo; 4 weeks after injection) of the same molecule?
The pathological changes was “The necrotic area became smaller, infiltration”.

And the “diameters of coagulated areas” value (pig liver in vivo; 12 weeks after injection)?
Its value is 0.5 cm.

What about the pathological changes (pig liver in vivo; 12 weeks after injection) of the same molecule?
Its pathological changes is “The necrotic area became further smaller, the”.

And the “animal death during the experiment” value (pig liver in vivo; 1 ml of 3.6 wt % hydrochloric acid into hog liver)?
Its value is “no animal died due to the treatment”.

And the “diameter of round high level echo region at coagulated site by B-type ultrasonography” value (pig liver in vivo; 1 ml of 3.6 wt % hydrochloric acid, immediately after injection)?
Its value is 2.0 cm.

And the “fate of necrotic substances” value (pig liver in vivo; 1 ml of 3.6 wt % hydrochloric acid, sixteen weeks after injection)?
Its value is “the necrotic substances were absorbed”.

For `CCO` [100% absolute alcohol, absolute alcohol], which “diameter of coagulating necrotic area” value (pig livers in vitro) is on record?
The value was 0.5 cm.

And the gross shape (pig livers in vitro)?
Its gross shape is “spherical, white, the border”.

What about the “diameter of coagulating necrotic area” value (liver of hogs in vivo) of the same molecule?
The value was 0.5 cm.

What about the “gross examination” value (liver of hogs in vivo) of the same molecule?
Its value is “spherical, white in color”.

And the “Diameters of coagulating necrotic area” value (S-180 sarcomas)?
Its value is 0.41 cm.

And the Gross shapes (S-180 sarcomas)?
Its Gross shapes is “spherical, white in color, the border”.
